From ChEMBL document CHEMBL1152360, “Structure-activity relationships of memoquin: Influence of the chain chirality in the multi-target mechanism of action” (Bioorg Med Chem Lett, 2009)

Legend:
[1] = molecular target: T1, Acetylcholinesterase (Homo sapiens, UniProt P22303); assay: Inhibition of human recombinant AChE preincubated 20 mins before substrate addition by Ellman method
[2] = molecular target: Cholinesterase (Homo sapiens, UniProt P06276); assay: Inhibition of human recombinant BchE preincubated 20 mins before substrate addition by Ellman method
Chain of Cholinesterase (P06276 whole entry): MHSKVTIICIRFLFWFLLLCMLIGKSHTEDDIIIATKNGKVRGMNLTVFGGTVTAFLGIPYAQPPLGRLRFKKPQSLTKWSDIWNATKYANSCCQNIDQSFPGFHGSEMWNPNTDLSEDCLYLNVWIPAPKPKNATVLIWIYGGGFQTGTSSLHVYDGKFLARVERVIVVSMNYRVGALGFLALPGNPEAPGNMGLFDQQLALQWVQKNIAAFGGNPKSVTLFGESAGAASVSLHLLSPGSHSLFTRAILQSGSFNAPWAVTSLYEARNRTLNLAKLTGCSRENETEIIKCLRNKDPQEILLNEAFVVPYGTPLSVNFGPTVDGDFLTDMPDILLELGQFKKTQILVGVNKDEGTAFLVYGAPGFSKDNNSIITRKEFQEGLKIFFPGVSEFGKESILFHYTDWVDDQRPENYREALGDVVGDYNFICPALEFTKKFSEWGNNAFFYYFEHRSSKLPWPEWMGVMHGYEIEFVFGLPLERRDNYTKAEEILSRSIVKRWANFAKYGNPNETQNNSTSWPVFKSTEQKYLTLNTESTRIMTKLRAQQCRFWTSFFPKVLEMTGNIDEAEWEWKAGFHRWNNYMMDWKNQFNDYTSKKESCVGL

[3] = molecular target: Cholinesterases; ACHE & BCHE (Homo sapiens) (UniProt P06276+P22303); assay: Selectivity ratio of IC50 for human recombinant BchE to IC50 for human recombinant AChE
Chain of Cholinesterases; ACHE & BCHE (Homo sapiens) (P06276 whole entry, looked up): as the sequence (P06276 whole entry) above
Chain of Cholinesterases; ACHE & BCHE (Homo sapiens) (P22303 whole entry, looked up): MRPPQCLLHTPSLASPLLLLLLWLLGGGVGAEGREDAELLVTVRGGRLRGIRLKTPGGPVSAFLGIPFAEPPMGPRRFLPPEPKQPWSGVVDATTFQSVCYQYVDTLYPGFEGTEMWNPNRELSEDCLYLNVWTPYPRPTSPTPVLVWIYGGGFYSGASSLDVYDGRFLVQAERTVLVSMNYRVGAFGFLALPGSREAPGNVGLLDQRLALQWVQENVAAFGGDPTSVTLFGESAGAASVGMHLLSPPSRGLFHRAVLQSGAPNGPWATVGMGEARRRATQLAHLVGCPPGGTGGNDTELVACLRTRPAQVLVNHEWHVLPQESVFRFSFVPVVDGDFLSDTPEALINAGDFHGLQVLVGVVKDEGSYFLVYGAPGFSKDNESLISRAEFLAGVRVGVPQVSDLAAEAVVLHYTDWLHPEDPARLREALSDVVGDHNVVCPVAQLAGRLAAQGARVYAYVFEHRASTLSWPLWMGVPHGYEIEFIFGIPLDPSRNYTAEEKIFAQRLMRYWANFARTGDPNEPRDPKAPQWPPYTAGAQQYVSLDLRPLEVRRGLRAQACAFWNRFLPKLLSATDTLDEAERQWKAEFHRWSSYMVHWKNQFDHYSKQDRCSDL

[4] = molecular target: T1, Acetylcholinesterase; assay: Inhibition of human AChE-induced amyloid beta (1-40) aggregation by thioflavin T fluorescence-based assay
[5] = molecular target: Amyloid-beta precursor protein (Homo sapiens) (UniProt P05067); assay: Inhibition of self-assembly of human amyloid beta (1-42) aggregation at 10 uM by thioflavin T-based fluorometric assay
Chain of Amyloid-beta precursor protein (Homo sapiens) (P05067 whole entry): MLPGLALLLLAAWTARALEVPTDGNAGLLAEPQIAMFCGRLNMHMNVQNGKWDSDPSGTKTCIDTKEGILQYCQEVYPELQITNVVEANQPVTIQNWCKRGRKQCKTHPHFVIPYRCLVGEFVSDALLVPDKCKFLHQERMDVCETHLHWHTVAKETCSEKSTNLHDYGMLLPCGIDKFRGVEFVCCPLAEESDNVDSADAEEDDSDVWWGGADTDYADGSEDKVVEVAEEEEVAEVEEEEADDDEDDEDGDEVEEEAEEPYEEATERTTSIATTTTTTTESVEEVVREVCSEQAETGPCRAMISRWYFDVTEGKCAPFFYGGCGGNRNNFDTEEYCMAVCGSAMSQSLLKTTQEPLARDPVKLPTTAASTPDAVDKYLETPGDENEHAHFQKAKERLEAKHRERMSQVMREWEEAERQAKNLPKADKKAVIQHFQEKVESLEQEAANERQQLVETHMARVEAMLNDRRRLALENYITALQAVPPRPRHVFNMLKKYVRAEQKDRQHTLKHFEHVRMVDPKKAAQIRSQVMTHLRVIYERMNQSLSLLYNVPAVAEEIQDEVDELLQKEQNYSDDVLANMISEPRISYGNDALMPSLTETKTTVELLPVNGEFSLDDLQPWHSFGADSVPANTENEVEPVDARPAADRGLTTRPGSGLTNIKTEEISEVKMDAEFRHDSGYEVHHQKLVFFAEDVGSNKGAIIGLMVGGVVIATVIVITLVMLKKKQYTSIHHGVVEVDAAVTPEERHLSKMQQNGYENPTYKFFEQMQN

T1 sequence (P22303 whole entry): as the sequence (P22303 whole entry, looked up) above

| Compound | IC50 [1] | IC50 [2] | Ratio IC50 [3] | IC50 [4] | inhibition [5] |
| --- | --- | --- | --- | --- | --- |
| CCN(CCCCCCNC1=CC(=O)C(NCCCCCCN(CC)[C@H](C)c2ccccc2OC)=CC1=O)[C@H](C)c1ccccc1OC | 0.5 nM | 1480 nM | 2960 | 9340 nM | 63.9% |
| CCN(CCCCCCNC1=CC(=O)C(NCCCCCCN(CC)Cc2ccccc2OC)=CC1=O)Cc1ccccc1OC |  |  | 929 |  |  |
| CCN(CCCCCCNC1=CC(=O)C(NCCCCCCN(CC)[C@@H](C)c2ccccc2OC)=CC1=O)[C@H](C)c1ccccc1OC | 0.36 nM | 982 nM | 2730 | 11000 nM | 63.5% |
| CCN(CCCCCCNC1=CC(=O)C(NCCCCCCN(CC)[C@@H](C)c2ccccc2OC)=CC1=O)[C@@H](C)c1ccccc1OC | 4.03 nM | 958 nM | 238 | 7910 nM | 62.3% |
